Reference: article PMC6930570, “2-Arylidene-1-indandiones as Pleiotropic Agents with Antioxidant and Inhibitory Enzymes Activities” (Molecules, 2019)

Assay: Superoxide anion radical scavenging activity (PMS/NADPH/NBT)
Assay type: biochemical
Conditions: 100 μM (stated for compound 3)
Experimental: The compounds have been tested to scavenge superoxide anion radicals. However, no results were recorded under the experimental conditions.
The superoxide anion producing system was set up by mixing PMS, NADPH, and air oxygen. The production of superoxide anion was estimated by the nitrobluetetrazole NBT method. The reaction mixture containing compounds, 3 μM PMS, 78 μM NADPH, and 25 μM NBT in […] phosphate buffer pH 7.4 was incubated for 2 min at room temperature and the absorption was measured at 560 nm against a blank containing PMS. The tested compounds were pre-incubated for 2 min before adding NADPH. Caffeic acid was used as an appropriate standard (76%).

In the case of `O=C(O)/C=C/c1ccc(O)c(O)c1` [Caffeic acid, reference compound], the “superoxide anion scavenging activity” value is reported as 76%.
